Source: ChEMBL document CHEMBL4507259 (2021)

Key:
[1] = biological target: Homeodomain-interacting protein kinase 1 (Homo sapiens) (UniProt Q86Z02); details: Compound concentration 1000.0 nM
[2] = biological target: T1, 5-hydroxytryptamine receptor 1A (Homo sapiens) (UniProt P08908); test: 5-HT1A (h) CEREP ligand profiling; details: filed as agonist, Compound concentration 10.0 uM
T1 sequence (whole entry): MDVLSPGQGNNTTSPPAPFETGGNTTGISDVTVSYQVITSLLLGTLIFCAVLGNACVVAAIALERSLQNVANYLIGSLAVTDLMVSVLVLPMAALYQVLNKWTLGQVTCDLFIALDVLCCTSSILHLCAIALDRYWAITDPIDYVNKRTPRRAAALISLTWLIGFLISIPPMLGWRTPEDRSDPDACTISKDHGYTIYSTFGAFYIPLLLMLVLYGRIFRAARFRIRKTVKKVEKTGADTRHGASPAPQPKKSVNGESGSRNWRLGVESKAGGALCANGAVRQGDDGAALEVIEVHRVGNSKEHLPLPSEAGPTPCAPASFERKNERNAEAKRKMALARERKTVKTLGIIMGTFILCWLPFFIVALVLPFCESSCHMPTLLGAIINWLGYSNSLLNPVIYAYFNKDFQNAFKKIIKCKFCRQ

[3] = system: Receptor-type tyrosine-protein kinase FLT3 (Homo sapiens), P36888 [UNDEFINED MUTATION]; details: Compound concentration 1000.0 nM
Receptor-type tyrosine-protein kinase FLT3 (Homo sapiens), P36888 [UNDEFINED MUTATION], sequence (P36888 whole entry, looked up, change not shown): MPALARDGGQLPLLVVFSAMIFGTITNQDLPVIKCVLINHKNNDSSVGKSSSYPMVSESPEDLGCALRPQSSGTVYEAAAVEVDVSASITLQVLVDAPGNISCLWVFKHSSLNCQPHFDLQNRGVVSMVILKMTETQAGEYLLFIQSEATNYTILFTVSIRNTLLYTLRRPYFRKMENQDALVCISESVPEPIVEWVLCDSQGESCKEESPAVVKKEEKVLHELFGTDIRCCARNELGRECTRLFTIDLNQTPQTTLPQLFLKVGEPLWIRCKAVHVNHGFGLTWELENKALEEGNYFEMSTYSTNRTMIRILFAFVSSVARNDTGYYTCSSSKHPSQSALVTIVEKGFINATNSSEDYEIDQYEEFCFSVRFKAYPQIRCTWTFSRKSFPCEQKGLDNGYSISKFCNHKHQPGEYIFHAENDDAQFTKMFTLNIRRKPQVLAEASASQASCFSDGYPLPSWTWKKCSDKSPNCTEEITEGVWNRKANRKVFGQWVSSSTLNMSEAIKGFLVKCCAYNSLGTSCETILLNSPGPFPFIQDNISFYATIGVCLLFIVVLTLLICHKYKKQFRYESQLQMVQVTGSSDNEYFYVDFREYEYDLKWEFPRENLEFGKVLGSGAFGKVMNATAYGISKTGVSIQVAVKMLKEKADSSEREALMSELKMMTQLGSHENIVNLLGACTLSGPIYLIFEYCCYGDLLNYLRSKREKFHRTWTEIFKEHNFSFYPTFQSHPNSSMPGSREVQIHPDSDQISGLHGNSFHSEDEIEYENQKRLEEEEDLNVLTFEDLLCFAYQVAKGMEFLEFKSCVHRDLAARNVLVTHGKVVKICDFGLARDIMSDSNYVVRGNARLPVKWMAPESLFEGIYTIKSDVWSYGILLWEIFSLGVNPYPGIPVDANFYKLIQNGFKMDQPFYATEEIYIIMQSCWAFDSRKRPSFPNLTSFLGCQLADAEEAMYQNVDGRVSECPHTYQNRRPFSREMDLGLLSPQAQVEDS

[4] = biological target: Cyclin-dependent kinase 18 (Homo sapiens) (UniProt Q07002); details: Compound concentration 1000.0 nM
[5] = biological target: Cyclin-dependent kinase 15 (Homo sapiens) (UniProt Q96Q40); details: Compound concentration 1000.0 nM
D(3) dopamine receptor = D(3) dopamine receptor (Homo sapiens, UniProt P35462); test: GPCRScan assay: inhibition of D3; parameters: radioligand conc. used [nm] 0.5 – 1.8, parental cells HEKT
D(3) dopamine receptor, sequence (P35462 whole entry): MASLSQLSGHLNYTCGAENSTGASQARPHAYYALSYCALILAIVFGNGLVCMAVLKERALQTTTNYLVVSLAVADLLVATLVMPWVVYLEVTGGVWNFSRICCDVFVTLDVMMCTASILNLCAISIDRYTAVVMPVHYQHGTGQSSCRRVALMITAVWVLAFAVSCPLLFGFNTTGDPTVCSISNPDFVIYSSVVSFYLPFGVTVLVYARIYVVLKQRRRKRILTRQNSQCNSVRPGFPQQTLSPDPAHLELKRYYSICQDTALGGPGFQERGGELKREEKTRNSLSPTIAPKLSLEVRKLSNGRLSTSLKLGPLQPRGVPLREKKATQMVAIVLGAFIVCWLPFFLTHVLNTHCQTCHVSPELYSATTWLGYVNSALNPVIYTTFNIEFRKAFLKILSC

[6] = biological target: Beta-2 adrenergic receptor (Homo sapiens) (UniProt P07550); test: beta 2 (h) CEREP ligand profiling; details: filed as agonist, Compound concentration 10.0 uM
Beta-2 adrenergic receptor (Homo sapiens), sequence (P07550 whole entry, looked up): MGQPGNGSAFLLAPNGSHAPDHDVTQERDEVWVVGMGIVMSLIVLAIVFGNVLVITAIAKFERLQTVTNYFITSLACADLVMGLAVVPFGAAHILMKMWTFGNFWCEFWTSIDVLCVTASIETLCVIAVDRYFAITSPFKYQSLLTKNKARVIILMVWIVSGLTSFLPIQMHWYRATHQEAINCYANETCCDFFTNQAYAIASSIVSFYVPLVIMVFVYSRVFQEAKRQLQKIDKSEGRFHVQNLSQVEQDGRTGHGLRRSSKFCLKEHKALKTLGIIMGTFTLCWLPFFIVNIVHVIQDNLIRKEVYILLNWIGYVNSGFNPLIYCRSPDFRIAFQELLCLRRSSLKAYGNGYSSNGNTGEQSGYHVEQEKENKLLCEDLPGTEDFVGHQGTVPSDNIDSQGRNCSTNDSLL

[7] = biological target: Cholecystokinin receptor type A (Homo sapiens) (UniProt P32238); test: CCK1 (CCKA) (h) CEREP ligand profiling; details: filed as agonist, Compound concentration 10.0 uM
Cholecystokinin receptor type A (Homo sapiens), sequence (P32238 whole entry): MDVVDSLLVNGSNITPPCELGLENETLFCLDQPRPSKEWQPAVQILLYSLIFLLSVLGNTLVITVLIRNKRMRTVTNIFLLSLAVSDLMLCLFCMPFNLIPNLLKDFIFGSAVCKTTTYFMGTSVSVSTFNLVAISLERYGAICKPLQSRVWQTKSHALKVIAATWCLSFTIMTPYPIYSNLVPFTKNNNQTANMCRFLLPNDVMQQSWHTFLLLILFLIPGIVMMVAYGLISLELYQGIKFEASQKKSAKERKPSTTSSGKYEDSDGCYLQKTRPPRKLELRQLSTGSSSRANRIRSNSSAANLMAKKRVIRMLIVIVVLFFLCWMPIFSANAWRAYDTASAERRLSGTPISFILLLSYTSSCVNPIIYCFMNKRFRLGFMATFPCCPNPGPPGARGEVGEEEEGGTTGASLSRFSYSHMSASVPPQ

A-375 = test: A375 cell line Proliferation assay; type: functional, Homo sapiens; details: Compound concentration 10 uM; time 5 day
BJAB = test: BJAB cell line Proliferation assay; type: functional, Homo sapiens; details: Compound concentration 10 uM; time 3 day
NU-DHL-1 = test: NuDHL1 cell line Proliferation assay; type: functional, Homo sapiens; details: Compound concentration 10 uM; time 3 day
MDA-MB-436 = test: MDA_MB_436 cell line Proliferation assay; type: functional, Homo sapiens; details: Compound concentration 10 uM; time 5 day
HCC1806 = test: HCC1806 cell line Proliferation assay; type: functional, Homo sapiens; details: Compound concentration 10 uM; time 5 day
SU-DHL-6 = test: SuDHL6 cell line Proliferation assay; type: functional, Homo sapiens; details: Compound concentration 10 uM; time 3 day
HCC1395 = test: HCC1395 cell line Proliferation assay; type: functional, Homo sapiens; details: Compound concentration 10 uM; time 5 day
[8] = biological target: T2, 5-hydroxytryptamine receptor 3A (Homo sapiens) (UniProt P46098); details: Compound concentration 10.0 uM
T2 sequence (whole entry): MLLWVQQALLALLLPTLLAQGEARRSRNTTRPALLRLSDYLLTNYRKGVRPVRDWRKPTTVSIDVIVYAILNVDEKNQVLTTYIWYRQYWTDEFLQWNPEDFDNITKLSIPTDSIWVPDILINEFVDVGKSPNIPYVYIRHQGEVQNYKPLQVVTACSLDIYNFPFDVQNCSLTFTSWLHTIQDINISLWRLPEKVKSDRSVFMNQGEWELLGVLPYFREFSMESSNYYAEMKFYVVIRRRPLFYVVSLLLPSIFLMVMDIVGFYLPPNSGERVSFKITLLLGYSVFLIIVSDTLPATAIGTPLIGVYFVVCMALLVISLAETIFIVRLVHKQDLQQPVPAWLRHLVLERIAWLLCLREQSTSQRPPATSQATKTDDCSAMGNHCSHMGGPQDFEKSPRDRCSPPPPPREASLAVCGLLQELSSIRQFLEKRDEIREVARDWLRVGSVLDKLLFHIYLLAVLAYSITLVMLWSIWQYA

RL = test: RL cell line Proliferation assay; type: functional, Homo sapiens; details: Compound concentration 10 uM; time 3 day
Jurkat = test: Jurkat cell line Proliferation assay; type: functional, Homo sapiens; details: Compound concentration 10 uM; time 3 day
CHL-1 = test: CHL1 cell line Proliferation assay; type: functional, Homo sapiens; details: Compound concentration 10 uM; time 5 day
MDA-MB-453 = test: MDA_MB_453 cell line Proliferation assay; type: functional, Homo sapiens; details: Compound concentration 10 uM; time 5 day
SK-MEL-24 = test: SKMEL24 cell line Proliferation assay; type: functional, Homo sapiens; details: Compound concentration 10 uM; time 5 day
[9] = biological target: Histone acetyltransferase KAT6A (Homo sapiens) (UniProt Q92794); test: MYST3 (HAT) CEREP ligand profiling; details: Compound concentration 10.0 uM
Histone acetyltransferase KAT6A (Homo sapiens), sequence (Q92794 whole entry, looked up): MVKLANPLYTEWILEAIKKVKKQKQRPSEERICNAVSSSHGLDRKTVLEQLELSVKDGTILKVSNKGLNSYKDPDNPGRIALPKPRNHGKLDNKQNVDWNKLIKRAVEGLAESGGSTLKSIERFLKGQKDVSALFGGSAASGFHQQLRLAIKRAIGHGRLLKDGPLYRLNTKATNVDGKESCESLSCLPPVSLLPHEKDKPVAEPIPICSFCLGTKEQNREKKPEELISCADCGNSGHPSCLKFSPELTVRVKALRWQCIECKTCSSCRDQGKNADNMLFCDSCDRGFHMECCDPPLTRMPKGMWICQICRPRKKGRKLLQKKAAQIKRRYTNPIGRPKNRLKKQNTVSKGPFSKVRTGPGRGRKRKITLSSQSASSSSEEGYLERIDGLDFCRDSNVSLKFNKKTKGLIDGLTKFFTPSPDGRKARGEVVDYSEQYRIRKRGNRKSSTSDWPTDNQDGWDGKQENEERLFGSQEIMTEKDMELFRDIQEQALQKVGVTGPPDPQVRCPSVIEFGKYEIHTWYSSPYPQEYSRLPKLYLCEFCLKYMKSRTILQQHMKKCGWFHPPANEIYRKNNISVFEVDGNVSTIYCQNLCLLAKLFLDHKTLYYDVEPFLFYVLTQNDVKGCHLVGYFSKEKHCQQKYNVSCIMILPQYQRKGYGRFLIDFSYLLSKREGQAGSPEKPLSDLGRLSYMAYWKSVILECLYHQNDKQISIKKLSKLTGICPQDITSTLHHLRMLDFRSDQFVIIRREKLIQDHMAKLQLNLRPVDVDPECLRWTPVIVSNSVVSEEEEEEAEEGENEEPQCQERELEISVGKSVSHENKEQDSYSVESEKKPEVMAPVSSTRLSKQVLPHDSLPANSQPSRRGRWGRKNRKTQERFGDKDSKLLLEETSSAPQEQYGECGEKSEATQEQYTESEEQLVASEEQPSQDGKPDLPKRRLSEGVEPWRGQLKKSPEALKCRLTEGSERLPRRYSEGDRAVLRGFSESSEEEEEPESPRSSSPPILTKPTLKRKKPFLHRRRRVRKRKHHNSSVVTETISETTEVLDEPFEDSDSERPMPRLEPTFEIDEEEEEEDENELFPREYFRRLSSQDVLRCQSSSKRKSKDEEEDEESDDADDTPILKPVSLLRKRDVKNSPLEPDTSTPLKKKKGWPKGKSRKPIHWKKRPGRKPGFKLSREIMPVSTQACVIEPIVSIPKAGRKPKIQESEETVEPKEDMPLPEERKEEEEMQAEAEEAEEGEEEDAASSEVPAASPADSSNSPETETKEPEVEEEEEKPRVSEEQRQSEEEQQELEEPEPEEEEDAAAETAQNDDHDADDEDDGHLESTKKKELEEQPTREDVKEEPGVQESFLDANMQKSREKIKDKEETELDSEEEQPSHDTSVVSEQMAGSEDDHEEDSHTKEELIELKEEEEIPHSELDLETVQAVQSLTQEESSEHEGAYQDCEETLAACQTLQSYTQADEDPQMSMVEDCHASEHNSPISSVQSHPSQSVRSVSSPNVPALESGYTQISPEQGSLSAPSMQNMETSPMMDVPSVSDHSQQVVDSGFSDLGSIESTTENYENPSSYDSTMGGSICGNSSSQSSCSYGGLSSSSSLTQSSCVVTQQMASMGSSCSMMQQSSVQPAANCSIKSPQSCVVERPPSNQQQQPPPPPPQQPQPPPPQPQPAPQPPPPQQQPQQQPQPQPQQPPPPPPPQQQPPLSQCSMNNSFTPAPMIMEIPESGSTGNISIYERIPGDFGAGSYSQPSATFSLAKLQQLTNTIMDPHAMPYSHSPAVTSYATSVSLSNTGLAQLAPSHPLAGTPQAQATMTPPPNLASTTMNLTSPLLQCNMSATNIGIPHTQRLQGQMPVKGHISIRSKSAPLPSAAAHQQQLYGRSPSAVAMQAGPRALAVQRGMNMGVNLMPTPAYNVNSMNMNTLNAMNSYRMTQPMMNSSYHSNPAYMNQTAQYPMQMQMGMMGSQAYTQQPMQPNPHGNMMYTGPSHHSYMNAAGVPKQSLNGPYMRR

NCI-H441 = test: H441 cell line Proliferation assay; type: functional, Homo sapiens; details: Compound concentration 10 uM; time 3 day
HCC2935 = test: HCC2935 cell line Proliferation assay; type: functional, Homo sapiens; details: Compound concentration 10 uM; time 3 day
OPM-2 = test: OPM-2 cell line Proliferation assay; type: functional, Homo sapiens; details: Compound concentration 10 uM; time 3 day
HCC1599 = test: HCC1599 cell line Proliferation assay; type: functional, Homo sapiens; details: Compound concentration 10 uM; time 5 day
[10] = biological target: B2 bradykinin receptor (Homo sapiens) (UniProt P30411); test: B2 (h) CEREP ligand profiling; details: filed as agonist, Compound concentration 10.0 uM
B2 bradykinin receptor (Homo sapiens), sequence (P30411 whole entry): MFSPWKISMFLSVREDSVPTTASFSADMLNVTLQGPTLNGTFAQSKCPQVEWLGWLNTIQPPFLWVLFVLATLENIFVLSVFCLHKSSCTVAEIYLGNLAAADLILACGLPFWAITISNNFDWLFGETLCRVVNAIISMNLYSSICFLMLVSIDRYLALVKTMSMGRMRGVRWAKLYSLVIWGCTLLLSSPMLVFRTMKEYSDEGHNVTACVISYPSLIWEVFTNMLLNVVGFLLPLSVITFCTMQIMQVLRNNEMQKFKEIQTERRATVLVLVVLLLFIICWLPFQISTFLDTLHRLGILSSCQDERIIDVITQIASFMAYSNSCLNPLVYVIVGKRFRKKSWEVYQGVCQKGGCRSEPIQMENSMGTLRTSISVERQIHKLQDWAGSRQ

Kasumi 1 = test: Kasumi-1 cell line Proliferation assay; type: functional, Homo sapiens; details: Compound concentration 10 uM; time 3 day
NCI-H522 = test: H522 cell line Proliferation assay; type: functional, Homo sapiens; details: Compound concentration 10 uM; time 3 day
L-363 = test: L-363 cell line Proliferation assay; type: functional, Homo sapiens; details: Compound concentration 10 uM; time 3 day
NCI-H1373 = test: H1373 cell line Proliferation assay; type: functional, Homo sapiens; details: Compound concentration 10 uM; time 3 day
HT-144 = test: HT-144 cell line Proliferation assay; type: functional, Homo sapiens; details: Compound concentration 10 uM; time 5 day
SC1 = test: Sc1 cell line Proliferation assay; type: functional, Homo sapiens; details: Compound concentration 10 uM; time 3 day
OCI-Ly3 = test: OCI Ly3 cell line Proliferation assay; type: functional, Homo sapiens; details: Compound concentration 10 uM; time 3 day
Rec1 = test: REC1 cell line Proliferation assay; type: functional, Homo sapiens; details: Compound concentration 10 uM; time 3 day
VCaP = test: VCaP cell line Proliferation assay; type: functional, Homo sapiens; details: Compound concentration 10 uM; time 5 day
OCI-Ly18 = test: OCI Ly18 cell line Proliferation assay; type: functional, Homo sapiens; details: Compound concentration 10 uM; time 3 day
[11] = biological target: Adenosine receptor A3 (Homo sapiens) (UniProt P0DMS8); test: A3 (h) CEREP ligand profiling; details: filed as agonist, Compound concentration 10.0 uM
Adenosine receptor A3 (Homo sapiens), sequence (P0DMS8 whole entry): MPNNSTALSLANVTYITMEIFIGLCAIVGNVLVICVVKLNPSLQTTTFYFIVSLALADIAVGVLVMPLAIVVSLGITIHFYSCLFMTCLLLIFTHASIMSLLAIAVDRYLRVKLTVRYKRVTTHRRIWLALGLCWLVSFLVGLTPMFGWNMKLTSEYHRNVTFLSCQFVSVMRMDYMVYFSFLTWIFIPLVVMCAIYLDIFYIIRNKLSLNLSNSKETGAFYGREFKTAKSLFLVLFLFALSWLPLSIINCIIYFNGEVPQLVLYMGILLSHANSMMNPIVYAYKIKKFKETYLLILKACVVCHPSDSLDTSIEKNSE

HL-60 = test: HL-60 cell line Proliferation assay; type: functional, Homo sapiens; details: Compound concentration 10 uM; time 3 day
K562 = test: K562 cell line Proliferation assay; type: functional, Homo sapiens; details: Compound concentration 10 uM; time 3 day
SU-DHL-16 = test: SuDHL16 cell line Proliferation assay; type: functional, Homo sapiens; details: Compound concentration 10 uM; time 3 day
COLO-679 = test: Colo679 cell line Proliferation assay; type: functional, Homo sapiens; details: Compound concentration 10 uM; time 5 day
EMT6 = test: EMT6 (mouse) cell line Proliferation assay; type: functional; details: Compound concentration 10 uM; time 5 day
NCI-H2081 = test: H2081 cell line Proliferation assay; type: functional, Homo sapiens; details: Compound concentration 10 uM; time 4 day
U-2973 = test: U2973 cell line Proliferation assay; type: functional, Homo sapiens; details: Compound concentration 10 uM; time 3 day
HCC1937 = test: HCC1937 cell line Proliferation assay; type: functional, Homo sapiens; details: Compound concentration 10 uM; time 5 day
SU-DHL-2 = test: SuDHL2 cell line Proliferation assay; type: functional, Homo sapiens; details: Compound concentration 10 uM; time 3 day
CAL-120 = test: CAL_120 cell line Proliferation assay; type: functional, Homo sapiens; details: Compound concentration 10 uM; time 5 day
SU-DHL-8 = test: SuDHL8 cell line Proliferation assay; type: functional, Homo sapiens; details: Compound concentration 10 uM; time 3 day
U-937 = test: U937 cell line Proliferation assay; type: functional, Homo sapiens; details: Compound concentration 10 uM; time 3 day
BT-20 = test: BT-20 cell line Proliferation assay; type: functional, Homo sapiens; details: Compound concentration 10 uM; time 5 day

## CNC(=O)Nc1ccc2c(c1)[C@@]1(CC2)OC(=O)N(CC(=O)N(Cc2ccc(F)cc2)[C@@H](C)C(F)(F)F)C1=O [A-486]
[1]
  residual activity: 78%
[2]
  inhibition: 8%
[3]
  residual activity: 99%
[4]
  residual activity: 100%
[5]
  residual activity: 100%
D(3) dopamine receptor; read-out: Ki
  Ki: 1.14 µM
D(3) dopamine receptor; read-out: pKi (converted)
  Ki: 1.1 µM
[6]
  inhibition: 1%
[7]
  inhibition: 1%

## CNC(=O)Nc1ccc2c(c1)CC[C@@]21OC(=O)N(CC(=O)N(Cc2ccc(F)cc2)[C@@H](C)C(F)(F)F)C1=O [A-485]
A-375
  Cell Proliferation EC50: >10 µM
BJAB
  Cell Proliferation EC50: 0.2813 µM
NU-DHL-1
  Cell Proliferation EC50: 0.5301 µM
MDA-MB-436
  Cell Proliferation EC50: >10 µM
HCC1806
  Cell Proliferation EC50: 2.9512 µM
SU-DHL-6
  Cell Proliferation EC50: 0.7457 µM
HCC1395
  Cell Proliferation EC50: >10 µM
[8]
  inhibition: -8.97%
RL
  Cell Proliferation EC50: 1.047 µM
Jurkat
  Cell Proliferation EC50: 4.03 µM
CHL-1
  Cell Proliferation EC50: 0.366 µM
MDA-MB-453
  Cell Proliferation EC50: 1.8664 µM
SK-MEL-24
  Cell Proliferation EC50: >10 µM
[9]
  inhibition: 5.6%
NCI-H441
  Cell Proliferation EC50: >10 µM
HCC2935
  Cell Proliferation EC50: >10 µM
OPM-2
  Cell Proliferation EC50: 0.62 µM
HCC1599
  Cell Proliferation EC50: 4.8529 µM
[10]
  inhibition: 0%
Kasumi 1
  Cell Proliferation EC50: 0.285 µM
NCI-H522
  Cell Proliferation EC50: 3.517 µM
L-363
  Cell Proliferation EC50: 0.509 µM
NCI-H1373
  Cell Proliferation EC50: 2.341 µM
HT-144
  Cell Proliferation EC50: 3.077 µM
SC1
  Cell Proliferation EC50: 1.689 µM
OCI-Ly3
  Cell Proliferation EC50: 0.4892 µM
Rec1
  Cell Proliferation EC50: >10 µM
VCaP
  Cell Proliferation EC50: 0.04 µM
OCI-Ly18
  Cell Proliferation EC50: 0.3213 µM
[11]
  inhibition: 40%
HL-60
  Cell Proliferation EC50: >10 µM
K562
  Cell Proliferation EC50: 1.27 µM
SU-DHL-16
  Cell Proliferation EC50: 0.7304 µM
COLO-679
  Cell Proliferation EC50: 2.258 µM
EMT6
  Cell Proliferation EC50: 0.4989 µM
NCI-H2081
  Cell Proliferation EC50: >10 µM
U-2973
  Cell Proliferation EC50: 0.6622 µM
HCC1937
  Cell Proliferation EC50: >10 µM
SU-DHL-2
  Cell Proliferation EC50: 0.9538 µM
CAL-120
  Cell Proliferation EC50: >10 µM
SU-DHL-8
  Cell Proliferation EC50: 0.54 µM
U-937
  Cell Proliferation EC50: >10 µM
BT-20
  Cell Proliferation EC50: 0.3365 µM
